Experimental data taken from US20050209278A1, “Piperidinyl- and piperazinyl-sulfonylmethyl hydroxamic acids and their use as protease inhibitors” (priority 2002, published 2005).
pIC50: −log10 of the molar value.

Each compound was assayed against T1, MMP-2 (Homo sapiens, UniProt P08253) (assay: In vitro MMP inhibition, IC50 determination (fluorogenic substrate I)). Conditions: value in parentheses; read-out: MMP-2 (IC-50).
T1 construct: made in house; host or cells: MMP-2-transfected p2AHT2 cells
T1 sequence (P08253 110-660): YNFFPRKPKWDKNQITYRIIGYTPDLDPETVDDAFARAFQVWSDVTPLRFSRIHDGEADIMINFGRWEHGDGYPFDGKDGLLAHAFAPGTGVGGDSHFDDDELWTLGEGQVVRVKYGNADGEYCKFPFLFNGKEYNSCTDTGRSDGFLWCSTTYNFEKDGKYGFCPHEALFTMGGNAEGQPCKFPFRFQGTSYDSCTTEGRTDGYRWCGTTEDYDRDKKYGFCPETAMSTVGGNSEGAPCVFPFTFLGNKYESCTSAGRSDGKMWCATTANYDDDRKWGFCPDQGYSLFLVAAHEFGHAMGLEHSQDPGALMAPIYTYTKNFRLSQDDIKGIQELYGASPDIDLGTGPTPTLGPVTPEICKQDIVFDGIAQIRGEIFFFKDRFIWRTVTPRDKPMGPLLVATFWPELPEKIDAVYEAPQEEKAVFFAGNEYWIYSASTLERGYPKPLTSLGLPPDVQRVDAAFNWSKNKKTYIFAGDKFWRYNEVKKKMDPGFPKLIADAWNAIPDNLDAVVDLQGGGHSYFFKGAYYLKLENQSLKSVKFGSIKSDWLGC
Type: biochemical

Row | pIC50 | Structure (SMILES)
1 | 7.23 | CCCCOc1ccc(N2CCN(S(=O)(=O)C3(C(=O)NO)CCN(C(=O)CCC)CC3)CC2)cc1 [Example 290]

Same assay, conditions: value in parenthesis; read-out: MMP-2 (IC-50)

Row | pIC50 | Structure (SMILES)
2 | 8.99 | CCOCCCc1ccc(N2CCN(S(=O)(=O)C3(C(=O)NO)CCN(CCOC)CC3)CC2)cc1 [Example 179]
3 | 9.23 | CCCOc1ccc(N2CCN(S(=O)(=O)C3(C(=O)NO)CCN(CCOC)CC3)CC2)cc1F [Example 185]
4 | 8.64 | COCCN1CCC(C(=O)NO)(S(=O)(=O)N2CCN(c3ccc(CC4CCC4)cc3)CC2)CC1 [Example 183]
5 | 9.19 | CCOc1ccc(N2CCN(S(=O)(=O)C3(C(=O)NO)CCN(CCOC)CC3)CC2)cc1F [Example 184]
6 | 8.67 | COCCCc1ccc(N2CCN(S(=O)(=O)C3(C(=O)NO)CCN(CCOC)CC3)CC2)cc1 [Example 180]
7 | 7.11 | CCc1cnc(N2CCN(S(=O)(=O)C3(C(=O)NO)CCN(CCOC)CC3)CC2)nc1 [Example 187]
8 | 7.99 | COCCN1CCC(C(=O)NO)(S(=O)(=O)N2CCN(c3ccc(CC4CCCCC4)cc3)CC2)CC1 [Example 181]
9 | 9.92 | COCCN1CCC(C(=O)NO)(S(=O)(=O)N2CCN(c3ccc(CCC4CCCC4)cc3)CC2)CC1 [Example 182]
10 | 7.90 | CCC(CC)Cc1ccc(N2CCN(S(=O)(=O)C3(C(=O)NO)CCN(CCOC)CC3)CC2)cc1 [Example 188]
11 | 8.50 | COCCN1CCC(C(=O)NO)(S(=O)(=O)N2CCN(c3ccc(C#N)cc3)CC2)CC1 [Example 186]
